Data from patent US20200253877A1, “GEMCABENE, PHARMACEUTICALLY ACCEPTABLE SALTS THEREOF, COMPOSITIONS THEREOF AND METHODS OF USE THEREFOR” (NEUROBO PHARMACEUTICALS, INC., priority 2018, published 2020).

Tests used:
[1] = Solubility of gemcabene calcium salt hydrate Crystal Form 1 by solvent addition method; format: physicochemical; details: thermodynamic from solid
Protocol: Approximately 20 mg of gemcabene calcium Crystal Form 1 was added to 5×2 mL vials. The solubility in 5 solvents was tested using a solvent addition method. Solvents included acetone, ethanol, ethyl acetate, t-butyl methyl ether (t-BME) and water. Solvent was added in 5 volume (100 μL) aliquots until either dissolution or 2 mL in total had been added. Between each addition, samples were heated to 60° C. (40° C. for acetone and t-BME). Any solids remaining after 24 hours at ambient were analyzed by X-ray powder diffraction (XRPD).

[2] = tested on: patients with hypercholesterolemia on stable statin therapy; assay: 12-week placebo-controlled study of 600 mg QD in hypercholesterolemia patients on moderate and high-intensity statins: atherogenic and inflammatory biomarkers; format: in vivo, human
Protocol: (§1) High-risk patients including some, but not all those with heterozygous familial hypercholesterolemia (HeFH) or atherosclerotic cardiovascular disease (ASCVD) on appropriate diet and stable statin therapy for at least 12 weeks and LDL-C ≥100 mg/dL (2.59 mmol/L) and triglycerides <500 mg/dL (5.65 mmol/L) were randomized into a 12-week, placebo-controlled, parallel-group, double-blind study to assess the efficacy of gemcabene calcium salt hydrate Crystal Form 1 (PSD90=52 μm) 600 mg (300-mg film-coated Tablet D×2) QD on LDL-C and other lipoproteins and hsCRP (high-sensitivity C-reactive protein). Safety and tolerability were also evaluated. The patients were stratified by high- or moderate-intensity statin therapy, with or without ezetimibe, with a target of 52 patients (26 patients on 600 mg gemcabene calcium salt hydrate Crystal Form 1 as administered by 2×film-coated Tablet D and 26 patients on placebo (“placebo”)) in each stratum. […] Mean baseline LDL-C for all patients was approximately 134 mg/dL (3.48 mmol/L) with most patients in the high-intensity statin stratum on atorvastatin and most patients in the moderate-intensity stratum on either simvastatin or atorvastatin.
The aim of this study was to characterize gemcabene calcium salt hydrate Crystal Form 1's safety and tolerability and to determine gemcabene calcium salt hydrate Crystal Form 1's additive impact to statins on serum biomarker including atherogenic biomarkers (LDL-C, non-HDL-C, ApoB, ApoE, and triglyceride (TG)) and inflammatory biomarkers (hsCRP, serum amyloid A (SAA)).
Fifty patients (24 patients on 600 mg (Tablet D×2); 26 placebo) on baseline high-intensity (HI) statins received atorvastatin 40 mg or 80 mg QD; or rosuvastatin 20 mg or 40 mg QD. Fifty-five patients (29 patients on 600 mg GEM; 26 placebo) on baseline moderate-intensity (MI) statins received atorvastatin 10 mg or 20 mg QD; rosuvastatin 5 mg or 10 mg QD; or simvastatin 20 or 40 mg QD. Baseline LDL-C was 127 mg/dL and 134 mg/dL in the MI statin and HI statin stratum, respectively.
Within the study population, an analysis was performed in a subpopulation of patients having mixed dyslipidemia (LDL-C ≥100 mg/dL and triglycerides ≥200 and <500 mg/dL). Eighteen patients (10 (film-coated Tablet D×2) patients and 8 placebo patients) having a baseline mean LDL-C level of 142 mg/dL, baseline mean triglyceride level of 247 mg/dL and BMI of 34 kg/m^2 were analyzed (FIG. 48). Although not measured in the subpopulation of this Example, some cardiometabolic patients could have elevated sulphatase-2 (Sulf-2) levels, which are believed to cause reduced Syndecan-1 (also known as “remnant receptor”)-mediated clearance of atherogenic remnant lipoproteins. Without being bound by theory, the data shown in FIG. 48 support the inventors' belief that administration of film-coated Tablet D, which comprises a compound of the invention, rescues remnant receptor activity.

[3] = 12-week placebo-controlled study in hypercholesterolemia patients on statins: safety and tolerability; format: in vivo; details: 600 mg QD, 12 weeks
Protocol: as §1
33 of 54 patients (61.1%) in the film-coated Tablet D group and 24 of 51 patients (47.1%) in the placebo group who reported at least one AE during the study. […]

[4] = Steady-state plasma gemcabene pharmacokinetics (600 mg daily) in healthy female subjects; format: in vivo, human
Protocol: An open-label, two-sequence, cross-over study to assess the steady-state effects of gemcabene calcium on the single-dose pharmacokinetics (PK) of oral contraceptive tablets in healthy female subjects was conducted with 300 mg tablets containing gemcabene calcium salt hydrate Crystal Form 1 having PSD90 of 52 μm (film-coated Tablet F).
The population for this study was generally healthy, adult female subjects of childbearing potential (≥18 to ≤35 years of age). This population supports the overall objective of the study to evaluate the effect of 600 mg of gemcabene calcium salt hydrate Crystal Form 1 having PSD90 of 52 μm at steady-state on the PK of a single dose of ON 1/35 (Ortho Novum 1/35; combined ethinyl estradiol/norethindrone oral contraceptive). The primary objective of this study was to assess the effect of daily 600 mg of gemcabene calcium salt hydrate Crystal Form 1 having PSD90 of 52 μm at steady-state on the pharmacokinetics (PK) of ON 1/35. The secondary objectives of this study were to assess the safety and tolerability of daily gemcabene 600 mg in combination with a single-dose ON 1/35 and to assess the steady-state PK of 600 mg of gemcabene calcium salt hydrate Crystal Form 1 having PSD90 of 52 μm (film-coated Tablet F×2). […]

[5] = patients with mixed dyslipidemia, 600 mg QD on statins (FIG. 48)

| SMILES | solubility ([1]; organic solvent or mixture, Acetone, heated to 40° C. between additions) [µg/mL] | solubility ([1]; organic solvent or mixture, Ethanol, heated to 60° C. between additions) [µg/mL] | solubility ([1]; organic solvent or mixture, Ethyl Acetate, heated to 60° C. between additions) [µg/mL] | solubility ([1]; organic solvent or mixture, t-Butyl Methyl Ether (t-BME), heated to 40° C. between additions) [µg/mL] | solubility ([1]; Water, heated to 60° C. between additions) [µg/mL] | atherogenic and inflammatory markers ([2]; hypercholesterolemia patients on MI and HI statins, 600 mg QD, 12 weeks) | reduction in ApoB [2, 5] [%] | reduction in ApoE [2, 5] [%] | reduction in LDL-C [2, 5] [%] | reduction in TG [2, 5] [%] | reduction in non-HDL-C [2, 5] [%] | serious adverse events and deaths [3] | mean Cmin [4] [µg/mL] |
| --- | --- | --- | --- | --- | --- | --- | --- | --- | --- | --- | --- | --- | --- |
| CC(C)(CCCCOCCCCC(C)(C)C(=O)O)C(=O)O.[Ca] [6-(5-Carboxy-5-methyl-hexyloxy)-2,2-dimethylhexanoic acid calcium] | < 10000 | < 10000 | < 10000 | < 10000 | 33000 | significant reductions | 26 | 34 | 23 | 33 | 19 | no serious adverse events (AEs) and no deaths |  |
| CC(C)(CCCCOCCCCC(C)(C)C(=O)O)C(=O)O [gemcabene, 6-(5-carboxy-5-methyl-hexyloxy)-2,2-dimethyl-hexanoic acid] |  |  |  |  |  |  |  |  |  |  |  |  | 102.68 |
